Legend:
calmodulin = biological target: T1, calmodulin (Bos taurus, UniProt P62157); assay: Anti-calmodulin activity assay: calmodulin-induced PFK inactivation; assay type: biochemical, bovine; conditions: drug 20 M
T1 construct: Calmodulin from bovine brain was purified to homogeneity using Phenyl-Sepharose (Pharmacia) chromatography; from tissue; host or cells: bovine brain
Source text: (§1) The numerous antimitotic drugs already developed and therapeu- tically used for a large number of pathologies belong to different classes based on their chemical structure and other distinctive features. Antimitotic drugs usually target the tubulin/microtubule network of the cytoskeleton that is formed by assembly of cyto- plasmic tubulin dimers. The stability of the different microtubular structures varies considerably; some of their functions depend on their lability. The lability is augmented by the extreme sensitivity to various drugs. Several synthetic and natural compounds interact specifically with tubulin and/or microtubule, fundamentally destroying its dynamic character and leading to cell death. […] Because of their extensive clinical use, it is important to synthesize additional agents having at least the same biological activity. […] Nevertheless, it is unclear yet how the anti-calmodulin activity of these drugs is related to their desired and undesired pharmacological effects. […] The synthesis of the KAR derivatives are presented. […] Taxol, GTP and trifluoperazine were purchased from Sigma. All organic reagents for synthesis of the new compounds were obtained from Aldrich and were of the highest grade. All other chemicals were reagent grade commercial preparations. […] Tubulin was stored in 1 M sucrose, 10 mM sodium phosphate buffer, 0.5 mM magnesium chloride and 0.1 mM GTP, pH 7.0, at -80C and dialysed against the appropriate buffer before use. […] PFK, aldolase and glycerol-3-phosphate dehydrogenase- triosephosphate isomerase purified from rabbit skeletal muscle were purchased in ammonium sulphate suspensions from Sigma or Boehringer. The enzyme suspensions were centrifuged at 10 000g for 5 min. The pellets were suspended in the appropriate buffer, then the enzymes were gel filtered or dialysed in the same buffer to remove ammonium sulphate. […] (Figure 1B; R1 , CH3; R2 , CH2 CH2 Cl). […] After 2 h incubation at room temperature, 200 ml dried toluene was added to the reaction mixture. […] The mixture was stirred for 30 min. After separation of the organic phase, it was washed with water (3 x 30 ml) and dried with potassium sulphate and evaporated on a water bath of 35-40C at 20-27 hPa. The resulting material was chromatographed on silica gel (500 g, bead size of 0.040- 0.063 mm) column (30 mm x 500 mm) using ethyl acetate/ethanol (9:1) mixture as eluent. […] The mixture was kept for 4 h at room temperature and then evaporated on a water bath at 40C under a vacuum of 80 hPa to a final volume of 5-6 ml. […] (Figure 1B, R1 , CHO; R2 , CH2 CH2 Cl). […] Synthesis of KAR-4 [3-allyl-2,4-dioxo-3,5-spiro-oxazolidino- 4-deacetoxy-vinblastine] (Figure 1B; R1 , CH3; R2 , CH2 CH=CH2 ). […] NMR measurements were carried out on a Varian Unity plus-500 instrument (500 MHz for 1H and 125 MHz for 13C) in DMSO. Chemical shifts were determined relative to dTMS = 0.00 p.p.m. 1H and 13C signal assignments were verified by a concerted use of two-dimensional 1H-1H and 1H-13C shift correlation methods (DQFCOSY, HSQC, HMBC) and NOESY experiments. The gradient-enhanced DQFCOSY, HSQC, HMBC and NOESY experiments were recorded by using the standard spectrometer software package. A mixing time of tmix = 0.5 s was used for the NOESY experiments. […] Mass spectrum was recorded on a Kratos MS 80 instrument using FAB.

[1] = system: Human neuroblastoma cell line (SH-SY5Y); assay: Microculture tetrazolium assay (MTA), cytotoxicity; conditions: read-out: Cytotoxicity MTA IC50, 4-day treatment, MTT
Source text: The numerous antimitotic drugs already developed and therapeu- tically used for a large number of pathologies belong to different classes based on their chemical structure and other distinctive features. Antimitotic drugs usually target the tubulin/microtubule network of the cytoskeleton that is formed by assembly of cyto- plasmic tubulin dimers. The stability of the different microtubular structures varies considerably; some of their functions depend on their lability. The lability is augmented by the extreme sensitivity to various drugs. Several synthetic and natural compounds interact specifically with tubulin and/or microtubule, fundamentally destroying its dynamic character and leading to cell death. […] Because of their extensive clinical use, it is important to synthesize additional agents having at least the same biological activity. […] Nevertheless, it is unclear yet how the anti-calmodulin activity of these drugs is related to their desired and undesired pharmacological effects. […] The synthesis of the KAR derivatives are presented. […] Taxol, GTP and trifluoperazine were purchased from Sigma. All organic reagents for synthesis of the new compounds were obtained from Aldrich and were of the highest grade. All other chemicals were reagent grade commercial preparations. […] Tubulin was stored in 1 M sucrose, 10 mM sodium phosphate buffer, 0.5 mM magnesium chloride and 0.1 mM GTP, pH 7.0, at -80C and dialysed against the appropriate buffer before use. […] PFK, aldolase and glycerol-3-phosphate dehydrogenase- triosephosphate isomerase purified from rabbit skeletal muscle were purchased in ammonium sulphate suspensions from Sigma or Boehringer. The enzyme suspensions were centrifuged at 10 000g for 5 min. The pellets were suspended in the appropriate buffer, then the enzymes were gel filtered or dialysed in the same buffer to remove ammonium sulphate. […] (Figure 1B; R1 , CH3; R2 , CH2 CH2 Cl). […] After 2 h incubation at room temperature, 200 ml dried toluene was added to the reaction mixture. […] The mixture was stirred for 30 min. After separation of the organic phase, it was washed with water (3 x 30 ml) and dried with potassium sulphate and evaporated on a water bath of 35-40C at 20-27 hPa. The resulting material was chromatographed on silica gel (500 g, bead size of 0.040- 0.063 mm) column (30 mm x 500 mm) using ethyl acetate/ethanol (9:1) mixture as eluent. […] The mixture was kept for 4 h at room temperature and then evaporated on a water bath at 40C under a vacuum of 80 hPa to a final volume of 5-6 ml. […] (Figure 1B, R1 , CHO; R2 , CH2 CH2 Cl). […] Synthesis of KAR-4 [3-allyl-2,4-dioxo-3,5-spiro-oxazolidino- 4-deacetoxy-vinblastine] (Figure 1B; R1 , CH3; R2 , CH2 CH=CH2 ). […] NMR measurements were carried out on a Varian Unity plus-500 instrument (500 MHz for 1H and 125 MHz for 13C) in DMSO. Chemical shifts were determined relative to dTMS = 0.00 p.p.m. 1H and 13C signal assignments were verified by a concerted use of two-dimensional 1H-1H and 1H-13C shift correlation methods (DQFCOSY, HSQC, HMBC) and NOESY experiments. The gradient-enhanced DQFCOSY, HSQC, HMBC and NOESY experiments were recorded by using the standard spectrometer software package. A mixing time of tmix = 0.5 s was used for the NOESY experiments.

[2] = system: tubulin/microtubule, PFK-bundled microtubules; assay: Tubulin polymerization with or without PFK (bundled vs single microtubules): turbidity and pelleting with SDS-PAGE; assay type: biochemical, calf; conditions: 10 M tubulin, 2 M drug
Source text: as §1

CC[C@]1(O)C[C@@H]2CN(CCc3c([nH]c4ccccc34)[C@@](C(=O)OC)(c3cc4c(cc3OC)N(C)[C@@H]3[C@]45CCN4CC=C[C@@](CC)(C[C@@]36OC(=O)N(CCCl)C6=O)[C@H]45)C2)C1 [KAR-2, 3′-(β-chloroethyl)-2′,4′-dioxo-3,5′-spiro-oxazolidino-4-deacetoxy-vinblastine]
Effect on calmodulin induced PFK inactivation: Activity (U mg-1) (calmodulin; PFK 1.2 M protomers, calmodulin 3 M, 60 min, without calmodulin 66.6 U mg-1, with calmodulin 8.0 U mg-1): 11.1 U mg-1
anti-calmodulin activity in the PFK assay (in words) (calmodulin): does not display anti-calmodulin activity
Anti-calmodulin activity: Efficiency (%) (calmodulin; calculated from the activity data (100% = PFK without calmodulin, 0% = PFK with calmodulin)): 5%
IC50 [1]: 310 nM
tubulin partition in pelleting experiment, without PFK ([2]; 20 µM taxol, no PFK, SDS-PAGE of supernatant and pellet): practically all tubulin appears in the super- natants
tubulin partition in pelleting experiment, with PFK (bundled microtubules) ([2]; 2 M PFK, 20 µM taxol, SDS-PAGE of supernatant and pellet): virtually no depolymer- izing effect
tubulin assembly by turbidity in the presence of PFK ([2]; 2 M PFK, turbidity at 350 nm): PFK can overcome the inhibitory effect of KAR-2 on tubulin polymerization
